These results are taken from ChEMBL document CHEMBL1201862, “PubChem BioAssay data set” (2004).

Experiment [1] in a line: Counterscreen for IDE inhibitors: Luminescence-based cell-based high throughput dose response assay to identify compounds that are cytotoxic to HEK cells. [Related pubchem assays: 434962 (Primary screen (IDE inhibitors in singlicate)), 449730 (Counterscreen (Cytotoxicity in triplicate)), 435028 (Confirmation (IDE inhibitors in triplicate)) …. In kind it is functional. The following applies: HEK293.

Experiment [2] addresses Insulin-degrading enzyme (Homo sapiens, UniProt P14735). Nature of the experiment: Dose Response: Fluorescence polarization-based cell-based high throughput dose response assay for inhibitors of insulin-degrading enzyme (IDE). [Related pubchem assays: 434962 (Primary screen (IDE inhibitors in singlicate)), 449730 (Counterscreen (Cytotoxicity in triplicate)), 435028 (Confirmation (IDE inhibitors in triplicate)), 434984 (Summary …. The experiment is classed as functional. A general note: Fluorescence polarisation rises when a labelled molecule tumbles more slowly, as on binding a larger partner.

The target in experiment [3] is T1, RNA-binding protein pos-1 (Caenorhabditis elegans, UniProt G5EF15).
T1 sequence (G5EF15 whole entry): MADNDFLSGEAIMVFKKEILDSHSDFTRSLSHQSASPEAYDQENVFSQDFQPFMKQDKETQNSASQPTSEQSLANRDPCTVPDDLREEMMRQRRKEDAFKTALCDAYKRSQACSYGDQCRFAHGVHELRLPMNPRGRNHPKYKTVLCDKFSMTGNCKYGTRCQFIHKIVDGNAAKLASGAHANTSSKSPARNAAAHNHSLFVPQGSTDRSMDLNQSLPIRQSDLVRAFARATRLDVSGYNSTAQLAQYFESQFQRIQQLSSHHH
The experiment is described as follows: disruptors of C. elegans POS-1 RNA interaction – biochemical, fluorescence polarization, dose response (AID 1964).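 Note: purified POS-1 fused to maltose binding protein made in E. coli; potency of compounds blocking POS-1 binding to fluorescent RNA.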

Experiment [4] deals with T2, Zinc finger protein mex-5 (Caenorhabditis elegans, UniProt Q9XUB2).
T2 sequence (Q9XUB2 whole entry): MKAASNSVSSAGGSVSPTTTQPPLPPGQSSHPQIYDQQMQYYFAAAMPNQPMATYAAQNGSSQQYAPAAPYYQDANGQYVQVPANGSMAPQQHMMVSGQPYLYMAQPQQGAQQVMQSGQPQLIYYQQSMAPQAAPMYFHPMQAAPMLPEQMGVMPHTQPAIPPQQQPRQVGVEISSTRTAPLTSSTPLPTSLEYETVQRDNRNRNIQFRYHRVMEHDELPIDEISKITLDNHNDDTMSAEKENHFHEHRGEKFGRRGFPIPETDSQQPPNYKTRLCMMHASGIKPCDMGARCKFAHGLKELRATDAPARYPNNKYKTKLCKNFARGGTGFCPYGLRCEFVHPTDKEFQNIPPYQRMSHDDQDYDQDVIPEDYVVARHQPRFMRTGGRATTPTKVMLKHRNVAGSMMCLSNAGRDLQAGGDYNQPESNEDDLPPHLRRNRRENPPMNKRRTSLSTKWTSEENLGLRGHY
The experiment is described as follows: potency of MEX-5 RNA-binding blockers – biochemical, C. elegans, fluorescence polarization, dose response (AID 1960).

Experiment [5] addresses T3, Aryl hydrocarbon receptor (Homo sapiens, UniProt P35869).
T3 sequence (P35869 whole entry): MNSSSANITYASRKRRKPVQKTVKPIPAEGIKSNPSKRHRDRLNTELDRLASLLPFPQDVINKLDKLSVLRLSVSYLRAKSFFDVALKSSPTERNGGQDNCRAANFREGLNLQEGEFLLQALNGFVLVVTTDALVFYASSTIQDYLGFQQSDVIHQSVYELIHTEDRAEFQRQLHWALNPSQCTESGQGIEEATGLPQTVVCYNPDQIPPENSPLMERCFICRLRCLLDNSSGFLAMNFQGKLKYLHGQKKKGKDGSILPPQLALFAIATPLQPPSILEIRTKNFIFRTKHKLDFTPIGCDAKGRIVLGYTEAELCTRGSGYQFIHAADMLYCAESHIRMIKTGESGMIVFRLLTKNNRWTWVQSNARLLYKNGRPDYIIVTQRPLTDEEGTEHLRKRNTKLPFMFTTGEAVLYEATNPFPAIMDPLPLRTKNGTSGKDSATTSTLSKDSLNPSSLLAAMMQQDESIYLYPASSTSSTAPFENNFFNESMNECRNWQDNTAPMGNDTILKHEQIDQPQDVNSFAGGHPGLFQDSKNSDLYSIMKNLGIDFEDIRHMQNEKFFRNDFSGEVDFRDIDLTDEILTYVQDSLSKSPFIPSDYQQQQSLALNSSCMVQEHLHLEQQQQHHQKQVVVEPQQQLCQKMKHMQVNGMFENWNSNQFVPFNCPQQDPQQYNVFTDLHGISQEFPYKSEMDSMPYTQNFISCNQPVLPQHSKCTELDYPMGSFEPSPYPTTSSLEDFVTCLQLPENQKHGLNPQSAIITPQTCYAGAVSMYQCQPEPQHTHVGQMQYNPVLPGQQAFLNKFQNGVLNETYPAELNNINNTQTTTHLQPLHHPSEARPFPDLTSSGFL
Nature of the experiment: Luminescence-based cell-based high throughput dose response assay for activators of the Aryl Hydrocarbon Receptor (AHR). [Related pubchem assays: 2796 (Primary screen (AHR activators in singlicate)), 2845 (Confirmation screen (AHR activators in triplicate)), 434939 (Counterscreen (PXR activators in triplicate)), 2804 (Summary (AHR activators))]. The experiment is classed as ADME. Background: The purpose of a counterscreen is to sort out artefacts and off-target activity.

Experiment [6] has as its target Glyceraldehyde-3-phosphate dehydrogenase (Homo sapiens, UniProt P04406).
The target in experiment [7] is T4, Bcl-2-related protein A1 (Mus musculus, UniProt Q07440).
T4 sequence (Q07440 whole entry): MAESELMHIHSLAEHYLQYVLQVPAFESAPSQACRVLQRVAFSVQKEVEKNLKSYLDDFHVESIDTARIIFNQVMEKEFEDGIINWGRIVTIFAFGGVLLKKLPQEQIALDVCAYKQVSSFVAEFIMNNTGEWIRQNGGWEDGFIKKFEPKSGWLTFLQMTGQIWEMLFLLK
The experiment is described as follows: small-molecule antagonists of Bfl-1/BH3 interaction – biochemical, TR-FRET, mouse Bfl-1, confirmation (AID 621).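 Note: TR-FRET binding of GST-Bfl-1 to FITC-labelled Bid peptide via terbium antibody.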 Background: In TR-FRET formats the signal depends on donor and acceptor labels being close together.

For experiment [8], the target named is T4, Bcl-2-related protein A1. The experiment is described as follows: Bfl-1 binding inhibitors, SAR follow-up, biochemical, fluorescence polarization (AID 1070).
Experiment [9] in a line: luciferase reporter signal reduction – luminescence, H4-C neuroglioblastoma cells, dose response (AID 2458).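 Note: H4 neuroglioblastoma cells stably carrying a luciferase reporter gene fusion.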 The experiment is classed as functional, cell-based.
The nature of experiment [10]: cells. The experiment is classed as functional, cell-based.
The nature of experiment [11]: Luminescence Cell-Based Dose Response HTS to Identify Inhibitors of 5'UTR Stem-Loop Driven Prion Protein mRNA Translation in H4 Neuroglioblastoma Cells. [Related pubchem assays: 1827 (Project Summary), 1813 (Primary HTS)]. The experiment is classed as functional.
The nature of experiment [12]: alpha-synuclein stem-loop luciferase translation blockers – H4 neuroglioma cells, luminescence, confirmation (AID 1988). In kind it is functional, cell-based.
A short description of experiment [13]: alpha-synuclein stem-loop translation blockers – luminescence, H4 neuroglioblastoma cells, dose confirmation, confirmation (AID 2454).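 Note: H4 neuroglioblastoma cells carrying an alpha-synuclein 5'UTR luciferase reporter; potency for inhibition of the luciferase signal.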 The experiment is classed as functional, cell-based.
The test system of experiment [14] is INS1. The experiment is described as follows: INS-1E survival protection against cytokine death – cell-based, luminescence, retest, dose response (AID 449756).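 Note: cell death triggered by IL-1 beta plus TNF-alpha plus IFN-gamma mixture; protective hits raise ATP signal compared with cytokine alone wells.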 In kind it is functional. The following applies: Rattus norvegicus.
Experiment [15] has as its target Albumin (Bos taurus, UniProt P02769). The experiment is described as follows: Counterscreen for inhibitors of T-cell receptor (TCR)-CD3 interaction: Fluorescence-based biochemical high throughput dose response assay to identify inhibitors of T-cell receptor (TCR)-CD3 interaction using a TAMRA-labeled BSA probe. The experiment is classed as functional.
Experiment [16] has as its target Luciferin 4-monooxygenase (Photinus pyralis, UniProt P08659). The experiment is described as follows: Counter Screen for Luciferase-based Assay Positives. [Related pubchem assays: 620, 618, 411 ].
The test system of experiment [17] is HT-1080. The experiment is described as follows: HT1080 cell viability loss – fluorescence readout (AID 620). The following applies: Homo sapiens. In kind it is functional, cell-based.
The subject of experiment [18] is Staphylococcus aureus. The experiment is described as follows: Inhibitors of Bacterial Quorum Sensing Structure Activity Relationship (SAR) Analysis: Dose Response Assay. [Related pubchem assays: 700, 527 ]. The experiment is classed as functional, organism-based.
Experiment [19] is described as follows: luciferase reporter signal suppression in cells – H4 neuroglioma cells, luminescence, dose response (AID 1990). The experiment is classed as functional, cell-based.
Experiment [20] concerns HeLa. Nature of the experiment: Cytotoxicity counterscreen assay for transcriptional activators of heat shock protein 70 (Hsp70). [Related pubchem assays: 1203, 1252 ]. The following applies: Homo sapiens. The experiment is classed as functional.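 Note: cells exposed to compound for 16 hours before readout.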
Experiment [21] has as its system BJ. Nature of the experiment: BJ-TERT fibroblast viability loss – cell-based, RAS-independent, luminescence, dose response (AID 1933). In kind it is functional. The following applies: Homo sapiens.
The subject of experiment [22] is BJ. The experiment is described as follows: cells. The experiment is classed as functional, cell-based. The following applies: Homo sapiens.
A short description of experiment [23]: HPDE-C7 pancreatic duct cell viability loss – fluorescence, HTS (AID 430). The experiment is classed as functional, cell-based. The following applies: Homo sapiens.
Experiment [24] in a line: viability loss of HPDE-C7K cells – cell-based, fluorescence, HTS, primary screen (AID 431). The experiment is classed as functional. The following applies: Homo sapiens.
For experiment [25], the system named is BJ. Nature of the experiment: BJ-TERT-LT-ST fibroblast viability loss – cell-based, RAS-independent, luminescence, dose response (AID 1935).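 Note: BJ fibroblasts immortalized with TERT plus LT and ST oncogenes.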 The following applies: Homo sapiens. In kind it is functional.
Experiment [26] in a line: DRD fibroblast viability loss – cell-based, non-viral oncogenic, luminescence, dose response (AID 1934). The experiment is classed as functional. The following applies: Homo sapiens.
Experiment [27] is described as follows: Luminescence Cell-Based Dose Retest to Confirm Inhibitors of Cancer Stem Cells. [Related pubchem assays (depositor defined):AID2717, AID2721]. In kind it is functional. The following applies: Homo sapiens.

Activity calls are given as the source filed them. Cut-off read from the data, not from the text of the source, for most assays here: actives have a measured EC50 and inactives only a lower limit.

Chain of Luciferin 4-monooxygenase (P08659 whole entry): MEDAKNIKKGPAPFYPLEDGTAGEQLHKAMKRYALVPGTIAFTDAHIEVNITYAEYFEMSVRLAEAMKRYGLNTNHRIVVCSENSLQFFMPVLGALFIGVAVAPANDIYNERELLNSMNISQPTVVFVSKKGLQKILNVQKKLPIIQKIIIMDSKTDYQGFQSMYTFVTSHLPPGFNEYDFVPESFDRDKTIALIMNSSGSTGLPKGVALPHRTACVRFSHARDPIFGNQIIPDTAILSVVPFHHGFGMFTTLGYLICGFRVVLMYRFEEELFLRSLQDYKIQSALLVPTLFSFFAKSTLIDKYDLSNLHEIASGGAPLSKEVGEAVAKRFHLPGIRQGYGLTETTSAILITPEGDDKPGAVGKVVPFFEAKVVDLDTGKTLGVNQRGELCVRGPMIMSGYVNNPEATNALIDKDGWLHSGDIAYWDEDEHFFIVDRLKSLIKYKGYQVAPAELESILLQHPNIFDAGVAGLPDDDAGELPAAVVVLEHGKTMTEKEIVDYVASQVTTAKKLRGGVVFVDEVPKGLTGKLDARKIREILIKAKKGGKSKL
Chain of Albumin (P02769 whole entry): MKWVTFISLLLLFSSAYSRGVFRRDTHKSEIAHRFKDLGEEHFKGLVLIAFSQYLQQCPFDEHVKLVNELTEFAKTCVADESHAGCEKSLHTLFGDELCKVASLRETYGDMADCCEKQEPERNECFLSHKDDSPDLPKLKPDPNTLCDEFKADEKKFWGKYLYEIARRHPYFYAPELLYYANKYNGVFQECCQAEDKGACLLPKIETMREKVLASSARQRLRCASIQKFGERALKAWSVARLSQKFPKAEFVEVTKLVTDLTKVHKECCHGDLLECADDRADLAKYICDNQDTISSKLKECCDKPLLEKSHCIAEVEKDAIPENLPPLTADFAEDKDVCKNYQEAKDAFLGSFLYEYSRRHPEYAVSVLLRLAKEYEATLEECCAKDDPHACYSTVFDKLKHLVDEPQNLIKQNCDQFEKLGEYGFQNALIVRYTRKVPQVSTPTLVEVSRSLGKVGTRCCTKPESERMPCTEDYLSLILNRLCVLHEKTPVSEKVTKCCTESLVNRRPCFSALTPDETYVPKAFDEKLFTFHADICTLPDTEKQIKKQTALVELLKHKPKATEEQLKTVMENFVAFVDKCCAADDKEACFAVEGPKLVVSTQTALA
Chain of Glyceraldehyde-3-phosphate dehydrogenase (P04406 whole entry): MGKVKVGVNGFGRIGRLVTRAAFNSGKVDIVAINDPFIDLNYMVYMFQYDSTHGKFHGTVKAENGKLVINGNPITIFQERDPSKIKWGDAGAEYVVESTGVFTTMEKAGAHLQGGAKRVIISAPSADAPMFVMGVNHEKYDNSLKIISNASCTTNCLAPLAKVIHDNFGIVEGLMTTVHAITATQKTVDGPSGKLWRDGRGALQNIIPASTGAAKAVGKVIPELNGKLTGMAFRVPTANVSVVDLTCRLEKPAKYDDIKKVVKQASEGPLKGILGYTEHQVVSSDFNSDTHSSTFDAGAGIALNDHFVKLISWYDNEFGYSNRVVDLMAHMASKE
Chain of Insulin-degrading enzyme (P14735 whole entry): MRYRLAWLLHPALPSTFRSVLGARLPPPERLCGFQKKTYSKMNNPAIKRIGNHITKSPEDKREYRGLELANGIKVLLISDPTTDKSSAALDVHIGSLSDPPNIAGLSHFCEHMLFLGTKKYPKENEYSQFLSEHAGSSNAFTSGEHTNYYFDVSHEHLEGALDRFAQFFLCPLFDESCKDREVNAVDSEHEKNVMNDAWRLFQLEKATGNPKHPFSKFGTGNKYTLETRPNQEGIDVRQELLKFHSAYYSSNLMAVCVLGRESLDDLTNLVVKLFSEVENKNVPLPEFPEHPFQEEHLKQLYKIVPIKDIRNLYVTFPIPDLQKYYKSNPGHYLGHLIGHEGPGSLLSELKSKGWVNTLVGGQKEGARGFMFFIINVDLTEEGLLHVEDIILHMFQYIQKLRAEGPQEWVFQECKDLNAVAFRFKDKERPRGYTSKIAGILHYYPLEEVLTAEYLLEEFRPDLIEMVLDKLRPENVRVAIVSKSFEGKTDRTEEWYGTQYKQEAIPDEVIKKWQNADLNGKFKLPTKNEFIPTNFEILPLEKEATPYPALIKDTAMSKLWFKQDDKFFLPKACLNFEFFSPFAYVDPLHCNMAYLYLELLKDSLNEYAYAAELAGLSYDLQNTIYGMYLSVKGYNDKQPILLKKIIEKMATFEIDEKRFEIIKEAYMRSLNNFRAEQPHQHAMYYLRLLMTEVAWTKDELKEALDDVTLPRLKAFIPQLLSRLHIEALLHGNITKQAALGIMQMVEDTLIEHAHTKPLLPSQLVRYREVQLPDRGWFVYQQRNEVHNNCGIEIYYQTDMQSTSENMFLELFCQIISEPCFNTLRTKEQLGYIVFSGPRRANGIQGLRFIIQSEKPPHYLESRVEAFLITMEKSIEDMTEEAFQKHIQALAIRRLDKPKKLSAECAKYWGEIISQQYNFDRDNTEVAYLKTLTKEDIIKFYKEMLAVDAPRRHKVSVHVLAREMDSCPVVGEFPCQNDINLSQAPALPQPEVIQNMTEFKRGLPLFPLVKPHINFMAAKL

Usually IC50 stands for the concentration that inhibits the measured activity by half. As to `Cc1cccc(Nc2nc(N)c(C#N)c(CC#N)c2C#N)c1`, the IC50 was 29600 nM (not active) in experiment [1] and > 56000 nM (not active) in [2].
For orientation: EC50 means the concentration giving half of the maximal effect. In the case of `NS(=O)(=O)c1ccc(-c2ccc(/C=C3\SC(=O)NC3=O)o2)cc1`, the EC50 in [3] is > 300000 nM (not active); in experiment [4], 33400 nM (active); in experiment [5], 237 nM (active).
On to `Cc1cc(C(F)(F)F)nc(S(C)(=O)=O)n1`, for which the half-inhibitory concentration (IC50) in experiment [6], in [7] and in experiment [8] was > 100000 nM (not active) throughout.
In general, AC50 refers to the concentration giving half of the maximal activity seen. `C/C(=N\NC(=O)c1c(C)nc2ccccn12)c1ccc(O)cc1O`: the EC50 in experiment [9] is 739 nM (active); in experiment [10] it was 901 nM (active); in experiment [11], < 100 nM (active); in experiment [12] it was < 100 nM (active); in experiment [13], > 12000 nM (inconclusive). In addition, the AC50 in experiment [14] was 586 nM (active). Besides, the IC50 in [15] was > 94100 nM (inactive).
`O=C(Nc1ccc2c(c1)OCCO2)c1cncc(Br)c1`: the figures for the EC50 in experiment [16] and in [17] were 12100 nM (active) and > 50000 nM (not active), respectively.
Consider `COc1ccc(NC(=O)C(c2cc3c(cc2[N+](=O)[O-])OCO3)N2CC(C)CC(C)C2)cc1` (stereo unspecified), for which the IC50 in experiment [18] was 1310 nM (active).
In the case of `CC(=O)O[C@@H]1/C=C/[C@](C)(O)C[C@@H](C)C/C=C/[C@H]2[C@@H]3O[C@]3(C)[C@@H](C)[C@H]3[C@H](Cc4ccccc4)NC(=O)[C@@]312` [EPOXYCYTOCHALASIN H], the EC50 in [19] was < 100 nM (active); in [9], 431 nM (active); in experiment [10] it was 608 nM (active); in experiment [11], < 100 nM (active); in experiment [12] it was < 100 nM (active); in [13] it was 403 nM (active).
A word on the CC50: it is the concentration that lowers cell viability or growth by half. `CCCOc1c(Br)cc(C(=O)NCC)cc1OC`: the CC50 in experiment [20] is > 99000 nM (not active).
Regarding `Cc1nc2ccccc2n1-c1nc(-c2ccco2)cc(C(F)(F)F)n1`, the EC50 in [19] was > 120000 nM (not active); in [21] it was 1280 nM (active); in [11] it was 9220 nM (active); in experiment [12], 5410 nM (active); in experiment [22], 23300 nM (inconclusive); in experiment [23] it was 2790 nM (active). Also, the EC50 is 3090 nM (active) in [24], 2380 nM (inconclusive) in experiment [25] and 2850 nM (active) in experiment [26]. In addition, the AC50 in experiment [27] was 820 nM (active); in [14] it was 1440 nM (active).
